Test [1] relates to collagen induced arthritis. The experiment in a line: Rat collagen II induced arthritis (CIA) model. The conditions noted are these: 30 mg/kg oral bid, day 1 to day 21. It counts as in vivo, Wistar Rats. The method, then:
To confirm the results obtained in mouse CIA model, the compound is also tested in a CIA model in rat essentially as described in a method reported in the literature (Rosloniec E F, Cremer M, Kang A, Myers L K. Current Protocols in Immunology. 1996, 15.5.1-15.5.24). Briefly, Wistar Rats are immunized intradermally with 200 μg bovine collagen II emulsified in Freund's […] on day 0 and with 100 μg collagen II emulsified in IFA (incomplete Freund's adjuvant) on day 7. The hind paw volume is measured before and after the immunization. The disease development of four paws is quantified with arthritis scores. Rats in normal and model groups are treated with vehicle or drug (treated group). Rats in treated group are orally administered with the testing compound at doses of 3, 10, 30 mg/kg (bid), from day 1 to day 21 after the first immunization. In the LEF group, as a positive control, rats are orally administered with LEF at a dose of 10 mg/kg, q.d.

Test [2] relates to LPS-induced joint TNFα production. The experiment in a line: LPS-induced acute joint inflammation in rat. It counts as in vivo, Wistar rats. The conditions noted are these: oral 1 h before intra-articular LPS 10 μg. The method, then: To further investigate the effects of IKKβ inhibitor on mechanism-relevant joint inflammation, the compound is screened for its ability to inhibit the LPS-induced joint acute inflammation in rat essentially as describe by a method reported in the literature (Matsukawa A, Yoshimura T, Miyamoto K, Ohkawara S, Yoshinaga M. Lab Invest. 1997, 76(5):629-38). Briefly, Wistar rats (female, body weight 150 g-170 g) are used in the experiments Animals (8/group) are given 1 to 100 mg/kg of the test compound [suspension in 35% Solutol (Macrogol 15 Hydroxystearate) & 60% PEG400 & 5% PG (propylene glycol)] or vehicle by oral gavage at 1 h prior to intra-articular (i.a.) administration of 10 μg of LPS in 10 μL of saline on left hind knee of each rat, using a 26-gauge needle. The right hind knee of each rat is injected with 10 μL of saline as a control. Two hour after LPS injection, each […] of the rats is lavaged with 100 μL of saline. The synovial fluids are collected and stored at -80° C. The […] is diluted 2 fold with the dilution buffer and 50 μL of the diluted sample is used for the measurement of TNFα levels using R&D System ELISA Kit based on the general Kit protocol. The plate is read on a SPECTRAMAX® M2e Plus Plate Reader and TNFα levels are analyzed using a standard curve. The drug levels are also measured by liquid chromatography-tandem mass spectrometry (LC-MS-MS).

Test [3] relates to LPS-induced plasma TNFα production. As to the kind of experiment: LPS-induced cytokine production in rat plasma. It counts as in vivo, Lewis rats. The conditions noted are these: oral 1 h before LPS 0.4 mg/kg i.p. The method, then:
Alternately, the compound is screened for its ability to inhibit the LPS-induced cytokine production in rat plasma according to the method reported in the literature (Ziegelbauer K, Gantner F, Lukacs N W, et al. Br J. Pharmacol. 2005,145(2):178-92). Briefly, Lewis rats (male, body weight 140 g-180 g) are used in the experiments. Animals (8/group) are given 1 to 100 mg/kg of the testing compound (suspension in 35% solutol & 60% PEG400 & 5% PG) or vehicle by oral gavage at 1 h prior to intraperitoneal administration of LPS 0.4 mg/kg. Ninety minutes after the intraperitoneal administration of LPS, blood is collected in heparin anticoagulated tubes to measure TNFα using R&D System ELISA Kit based on the general Kit protocols. The plasma sample is diluted 100 fold with the dilution buffer and 50 μL of diluted sample is used in each measurement. The plate is read on a SPECTRAMAX® M2e Plus Plate Reader and TNFα levels are analyzed based on the standard curve. The drug levels in plasma are measured with LC-MS-MS. […] Alternately, the compound is screened for its ability to inhibit the LPS-induced cytokine production in mouse plasma. Balb/c mice (female, body weight 18-20 g) are used in the experiments. […] The plate is read on a SPECTRMAX® M2e Plus Plate Reader and the data is analyzed using a standard curve.

SMILES strings stand for the structures.

The term ED50 denotes the dose that gives a 50% effect, or the effect in half of the subjects. For orientation: EC50 means the concentration giving half of the maximal effect.

Turning to `Cl.O=C(NC1CC1)c1cccc2[nH]c(-c3nc(N[C@@H]4CCC[C@H]4O)ncc3Cl)cc12` [Example 2, 2-{5-Chloro-2-[(1R,2R)-2-hydroxycyclopentylamino]pyrimidin-4-yl}-N-cyclopropyl-1H-indole-4-carboxamide hydrochloride], in test [1], the “arthritis scores and hind paws volume” value is listed as “significantly attenuates collagen induced arthritis”. The ED50 in test [2] is 23.4 mg/kg; in test [3] it was 19.8 ± 10.9 mg/kg. The EC50 in test [3] (read-out: EC50, plasma TNFα production (drug level in plasma)) worked out at 4.04 ± 1.28 mg/L.

The record behind these values is patent publication US8501166B2, “Pyrimidinyl indole compounds” (Hutchison Medipharma Limited, priority 2010, dated 2013).
